Source: patent publication US12447156B2, “Treating progressive familial intrahepatic cholestasis (PFIC) with IBAT inhibitors” (ALBIREO AB, priority 2020, dated 2025)

Columns and labels:
Type in all cases: in vivo, human
[1] = test system: patients with PFIC; assay: PEDFIC 2 open-label extension trial, interim analysis: safety (TEAEs)
Procedure: Study Design • This phase 3 study included a screening period (for newly enrolled patients [i.e., cohort 2] only) and a 72-week treatment period (FIG. 9) in which all patients received oral, once-daily odevixibat 120 μg/kg. • Patients returned to the clinic 4 and 12 weeks after the first dose of odevixibat and then approximately every 10 to 12 weeks thereafter. • Following the 72-week treatment period, patients either enrolled in an optional extension for continued treatment or returned for a follow-up visit 4 weeks after ending study drug. Outcomes, Assessments, and Statistical Analysis • The primary efficacy outcomes were to assess the effects of odevixibat on sBAs and pruritus, including mean changes and proportion of patients meeting response criteria. • sBA responders were defined as patients who achieved a normalization of sBAs or reduction of ≥70%. • Pruritus responders were defined as patients who achieved a ≥1-point drop on the pruritus assessment. • Secondary outcomes included characterizing the long-term safety and tolerability of odevixibat, as well as the effects of odevixibat on growth, biliary diversion and/or liver transplantation, and markers of cholestasis and liver disease. • For the P1O and PIP groups, there were 2 baselines (PEDFIC 1 baseline and PEDFIC 2 baseline); for those in cohort 2, baseline refers to the value prior to initiation of odevixibat in PEDFIC 2. • This interim analysis focuses on data collected after 24 weeks of treatment in PEDFIC 2. • T tests were used to calculate P values for primary outcomes in the P1O group only; other outcomes were summarized descriptively.

[2] = test system: children with PFIC; assay: Pooled analysis of PEDFIC 1 and PEDFIC 2 (up to 48 weeks): safety
Excerpt: This example describes key outcomes with odevixibat in children with PFIC1 (familial intrahepatic cholestasis 1 [FIC1] deficiency) or PFIC2 ((bile salt export pump [BSEP] deficiency) based on pooled analysis of data from the phase 3 PEDFIC 1 (P1; NCT03566238) and PEDFIC 2 (P2; NCT03659916) studies. This pooled analysis covers up to 48 weeks of odevixibat treatment from P1 and through the planned P2 interim data cut. The following outcomes are described: change in serum bile acids (sBAs), change in pruritus score (measured using the PRUCISION scale; range: 0-4), evaluation of growth and sleep parameters, and safety monitoring. Mean changes in autotaxin (linked to cholestatic pruritus intensity) and plasma 7α-hydroxy-4-cholesten-3-one (p-C4; marker of bile acid synthesis) levels were also summarized.

[3] = test system: patients with PFIC; assay: Pooled PEDFIC 1/2: relationships between changes in autotaxin, pruritus and serum bile acids (weeks 25-48)
Procedure: Phase 3 study data of 77 patients treated with odevisibat was pooled from the PEDFIC 1 and PEDFIC 2 studies. In PEDFIC 1, patients received placebo or odevixibat 40 or 120 μg/kg/day for 24 weeks; in PEFFIC 2, patients were enrolled in an ongoing extension study, with all patients receiving 120 μg/kg/day. At the data cutoff, 77 patients had received odevixibat. The median length of odevixibat treatment was 37 weeks, with a range of 1-108 weeks. Most patients (88%) were continuing on treatment. Characteristics of patients with available data at weeks 25-48 who were included in the current analyses were generally similar to the overall study population.
Autotaxin was assessed prior to treatment and throughout PEDFIC 1 and PEDFIC 2. Caregivers evaluated patients' pruritus using the validated PRUCISION scale, where scores range from 0 to 4; higher scores indicate worse symptoms. Serum bile acid measurements were taken at all study visits.
Relationships between changes from baseline to weeks 25-48 in autotaxin, pruritus, and serum bile acid levels were assessed as post hoc analyses. Changes from baseline were summarized descriptively. Pearson coefficients and P values were calculated for correlations. Responders were defined as ≥70% reduction from baseline in serum bile acids or serum bile acids ≤70 μmol/L at last assessment up to week 48 and/or pruritus score reduction of ≥1 point from baseline based on last available monthly or 12-week interval score up to week 48.
Values are based on last assessment up to week 48. For serum bile acids, this was the average value from weeks 46 and 48 when available; otherwise, the last available assessment in the interval was used. For pruritus, last monthly score was used when available; otherwise, the score from the last 12 weeks was used. For autotaxin, the last assessment within the interval was used.

[4] = patients analyzed in correlation analyses, N=44

## CCCCC1(CCCC)CN(c2ccccc2)c2cc(SC)c(OCC(=O)N[C@@H](C(=O)N[C@@H](CC)C(=O)O)c3ccc(O)cc3)cc2S(=O)(=O)N1 [Odevixibat, 1,1-dioxo-3,3-dibutyl-5-phenyl-7-methylthio-8-(N-{(R)-α-[N-((S)-1-carboxypropyl)carbamoyl]-4-hydroxybenzyl}carbamoylmethoxy)-2,3,4,5-tetrahydro-1,2,5-benzothiadiazepine]
[1]; PEDFIC 2
  fat-soluble vitamin deficiencies refractory to clinically recommended vitamin supplementation: no new or worsening fat-soluble vitamin deficiencies
[1]; PEDFIC 2, Cohort 2, n = 16
  Any TEAE, patients: 8 (50.0) n (%)
  Drug-related TEAE by preferred term: Blood bilirubin increased: 3 (18.8) n (%)
  Drug-related TEAE by preferred term: Cough: 0 n (%)
  Drug-related TEAE by preferred term: Diarrhea: 0 n (%)
  Drug-related TEAE by preferred term: INR increased: 2 (12.5) n (%)
  Drug-related TEAE by preferred term: Pruritus: 0 n (%)
  Drug-related TEAE by preferred term: Pyrexia: 2 (12.5) n (%)
  Drug-related TEAE by preferred term: URTI: 0 n (%)
  Drug-related TEAEs, patients: 5 (31.3) n (%)
  Mild TEAE, patients: 2 (12.5) n (%)
  Moderate TEAE, patients: 3 (18.8) n (%)
  Serious TEAEs, patients: 1 (6.3) n (%)
  Severe TEAE, patients: 3 (18.8) n (%)
  TEAEs leading to discontinuation, patients: 2 (12.5) n (%)
[1]; PEDFIC 2, P1O, n = 34
  Any TEAE, patients: 28 (82.4) n (%)
  Drug-related TEAE by preferred term: Blood bilirubin increased: 4 (11.8) n (%)
  Drug-related TEAE by preferred term: Cough: 8 (23.5) n (%)
  Drug-related TEAE by preferred term: Diarrhea: 6 (17.6) n (%)
  Drug-related TEAE by preferred term: INR increased: 2 (5.9) n (%)
  Drug-related TEAE by preferred term: Pruritus: 4 (11.8) n (%)
  Drug-related TEAE by preferred term: Pyrexia: 7 (20.6) n (%)
  Drug-related TEAE by preferred term: URTI: 9 (26.5) n (%)
  Drug-related TEAEs, patients: 10 (29.4) n (%)
  Mild TEAE, patients: 17 (50.0) n (%)
  Moderate TEAE, patients: 10 (29.4) n (%)
  Serious TEAEs, patients: 0 n (%)
  Severe TEAE, patients: 1 (2.9) n (%)
  TEAEs leading to discontinuation, patients: 0 n (%)
[1]; PEDFIC 2, P1P, n = 19
  Any TEAE, patients: 14 (73.7) n (%)
  Drug-related TEAE by preferred term: Blood bilirubin increased: 2 (10.5) n (%)
  Drug-related TEAE by preferred term: Cough: 2 (10.5) n (%)
  Drug-related TEAE by preferred term: Diarrhea: 1 (5.3) n (%)
  Drug-related TEAE by preferred term: INR increased: 2 (10.5) n (%)
  Drug-related TEAE by preferred term: Pruritus: 2 (10.5) n (%)
  Drug-related TEAE by preferred term: Pyrexia: 4 (21.1) n (%)
  Drug-related TEAE by preferred term: URTI: 5 (26.3) n (%)
  Drug-related TEAEs, patients: 5 (26.3) n (%)
  Mild TEAE, patients: 6 (31.6) n (%)
  Moderate TEAE, patients: 7 (36.8) n (%)
  Serious TEAEs, patients: 3 (15.8) n (%)
  Severe TEAE, patients: 1 (5.3) n (%)
  TEAEs leading to discontinuation, patients: 1 (5.3) n (%)
[1]; PEDFIC 2, laboratory assessments
  mean serum chemistry, hematology, urinalysis, international normalized ratio values: No clinically significant changes or safety signals
[1]; PEDFIC 2, of 50 patients overall with any TEAE
  patients reporting mild/moderate TEAEs: 45 patients
[1]; PEDFIC 2 overall
  rate of discontinuations due to TEAEs: < 30
[1]; PEDFIC 2 overall (69 patients)
  patients overall with any TEAE: 50 patients
[1]; PEDFIC 2 overall, 7 patients, through week 24
  incidence of diarrhea: 10.1%
[1]; PEDFIC 2 through week 24
  deaths or drug-related serious TEAEs: no deaths or drug-related serious TEAEs occurred
[1]; PEDFIC 2 through week 24, 120 μg/kg/day
  tolerability: generally well tolerated
[2]; pooled P1+P2, 32 of 77 patients
  patients with drug-related TEAEs: 42%
[2]; pooled P1+P2, 61 of 77 patients
  patients who experienced any TEAE: 79%
[2]; pooled P1+P2, 77 patients
  drug-related serious TEAEs: no drug-related serious TEAEs were reported
  patients reporting severe TEAEs: Eight
  patients with TEAEs leading to treatment discontinuation: Four
[2]; pooled P1+P2, BSEP subtype 1
  incidence of TEAEs: 77%
[2]; pooled P1+P2, BSEP subtype 2
  incidence of TEAEs: 86%
[2]; pooled P1+P2, patients with PFIC1, placebo in P1 85%
  incidence of TEAEs: 80%
[2]; pooled P1+P2, patients with PFIC2
  incidence of TEAEs: 80%
[2]; pooled P1+P2, treatment for up to 48 weeks
  tolerability: well tolerated
[3]; patients analyzed in correlation analyses, N=33
  Autotaxin, percentage change from baseline to weeks 25-48, mean (SE): −50% (6%)
[3]; patients analyzed in correlation analyses, N=33, last assessment up to week 48
  Autotaxin, change from baseline to weeks 25-48, mean (SE): −1696 (266) ng/ml
[3]; [4]
  Serum bile acids, change from baseline to weeks 25-48, mean (SE): −140 (25) μmol/L
  Serum bile acids, percentage change from baseline to weeks 25-48, mean (SE): −49% (8%)
[3]; patients analyzed in correlation analyses, N=44, PRUCISION scale
  Pruritus score (range, 0-4), change from baseline to weeks 25-48, mean (SE): −1.4 (0.2)
[3]; patients with PFIC
  effect on autotaxin, pruritus and serum bile acids: reduced autotaxin, pruritus, and serum bile acids
